This note sets out measurements from patent US5747500A, “Antiviral 2, 4-pyrimidinedione derivatives” (priority 1993, dated 1998).

In brackets after ≈: the same amount, converted by molar mass.

In data set [1] the test system is HIV. The data set can be described thus: inhibition of HIV-induced cytopathic effect in MT-4 cells (MTT method). The conditions noted are these: for EC50: Human immunodeficiency virus 1, MT4, HIV-infected MT-4 cells, 1000 CCID50, 4 or 5 day incubation at 37° C., MTT method, read-out: ED50: Effective concentration for the inhibition of the proliferation of HIV by 50%; for S.I.: Selectivity index (CD50/ED50): ratio CD50/ED50, MT-4 cells. The data set is classed as cell-based. As to the method:
The anti-HIV assays were based on the inhibition of the virus-induced cytopathic effect in MT-4 cells as described in J. Virol. Methods, 16, 171 (1987). Briefly, MT-4 cells were suspended in culture medium at 2.5×10^5 cells/ml and infected with 1000 CCID50 (50% cell culture infective dose) of HIV. Immediately, after virus infection, 100 μl of the cell suspension was brought into each well of a flat-bottomedmicrotiter tray containing various concentrations of the test compounds. After a 4 or 5 day incubation at 37° C., the number of viable cells was determined by the 3-(4,5-dimethylthiazol-2-yl)-2,5-diphenyltetrazoliumbromide (MTT) method, as disclosed in J. Virol. Methods, 20, 309 (1988).
ED50 : Effective concentration for the inhibition of the
proliferation of HIV by 50%
For orientation: Protection from cytopathic effect is a common read-out in antiviral testing.

Data set [2] can be described thus: cytotoxicity: viability of mock-infected MT-4 host cells (MTT method). The data set is classed as cell-based. The conditions noted are these: human, mt-4 cells, read-out: CD50: Cytotoxic concentration that causes death of cells by 50%. How it is done: The cytotoxicity of the compounds of the present invention was assessed in parallel with their antiviral activity. It was based on the viability of mock-infected host cells as determined by the MTT methods (se J. Virol. Methods, 20, 309 (1988)).
CD50 : Cytotoxic concentration that causes death of cells by 50%

For the compound `CC#CCn1c(C(=O)c2cc(C)cc(C)c2)c(C(C)C)c(=O)[nH]c1=O` [Example 55, 1-(2-butynyl)-5-isopropyl-6-(3,5-dimethylbenzoyl)-2,4-pyrimidinedione], in data set [1], the EC50 is < 0.32 µg/mL and the “S.I.: Selectivity index (CD50/ED50)” value is on record as > 130. Moreover, the CC50 in data set [2] turned out to be 41.7 µg/mL (≈ 123 µM).
Regarding `C/C=C/Cn1c(Oc2cc(C)cc(C)c2)c(C(C)C)c(=O)[nH]c1=O` [Example 64], in data set [1], the EC50 is < 0.009 µg/mL and the “S.I.: Selectivity index (CD50/ED50)” value is reported as > 1,098. For the same compound, the CC50 in data set [2] was determined as 9.89 µg/mL (≈ 30.1 µM).
`CCc1c(Sc2cc(C)cc(C)c2)n(CC#Cc2ccccc2)c(=O)[nH]c1=O` [Example 26, 1-(3-phenyl-2-propynyl)-5-ethyl-6-(3,5-dimethylphenylthio)-2,4-pyrimidinedione]: in data set [1], the EC50 was < 0.009 µg/mL and the “S.I.: Selectivity index (CD50/ED50)” value is on record as > 547. Besides, the CC50 in data set [2] stood at 4.93 µg/mL (≈ 12.6 µM).
In the case of `C/C=C/Cn1c(C(=O)c2cc(C)cc(C)c2)c(CC)c(=O)[nH]c1=O` [Example 44], in data set [1], the EC50 was < 0.01 µg/mL and the “S.I.: Selectivity index (CD50/ED50)” value was > 3,439. Moreover, the CC50 in data set [2] is 34.4 µg/mL (≈ 105 µM).
For `CCc1c(C(=O)c2cc(C)cc(C)c2)n(C/C=C/COC(C)=O)c(=O)[nH]c1=O` [Example 80, 1-(4-acetoxy-trans-2-butenyl)-5-ethyl-6-(3,5-dimethylbenzoyl)-2,4-pyrimidinedione] the same measures were < 0.033 µg/mL, > 1,345 and 44.4 µg/mL (≈ 115 µM).
On to `C=CCn1c(Sc2cc(C)cc(C)c2)c(CC)c(=O)[nH]c1=O` [Example 18, 1-allyl-5-ethyl-6-(3,5-dimethylphenylthio)-2,4-pyrimidinedione], for which, in data set [1], the EC50 is < 0.032 µg/mL and the “S.I.: Selectivity index (CD50/ED50)” value was > 121. Further, the CC50 in data set [2] came to 3.9 µg/mL (≈ 12.3 µM).
`C=CCn1c(Sc2ccccc2)c(CC)c(=O)[nH]c1=O` [Example 12, 1-allyl-5-ethyl-6-phenylthio-2,4-pyrimidinedione]: in data set [1], the EC50 is < 0.32 µg/mL and the “S.I.: Selectivity index (CD50/ED50)” value was > 54. The CC50 in data set [2] came out at 17.5 µg/mL (≈ 60.6 µM).
Consider `C#CCn1c(Sc2cc(C)cc(C)c2)c(CC)c(=O)[nH]c1=O` [Example 24, 1-propargyl-5-ethyl-6-(3,5-dimethylphenylthio)-2,4-pyrimidinedione], for which, in data set [1], the EC50 was < 0.032 µg/mL and the “S.I.: Selectivity index (CD50/ED50)” value is recorded as > 56. The CC50 in data set [2] is 1.81 µg/mL (≈ 5.76 µM).
For `C/C=C/Cn1c(Sc2ccccc2)c(CC)c(=O)[nH]c1=O` [Example 13] the same measures were < 0.32 µg/mL, > 50 and 16.2 µg/mL (≈ 53.5 µM).
The corresponding values for `C=CCn1c(C(=O)c2cc(C)cc(C)c2)c(CC)c(=O)[nH]c1=O` [Example 43, 1-allyl-5-ethyl-6-(3,5-dimethylbenzoyl)-2,4-pyrimidinedione] are < 0.17 µg/mL, > 320 and 54.5 µg/mL (≈ 175 µM).
As to `CCOCn1c(Cc2cc(C)cc(C)c2)c(CC)c(=O)[nH]c1=O` [Ref. 1, 1ethoxymethyl-5-ethyl-6-(3,5-dimethylbenzyl)-2,4-pyrimidinedione, reference compound], in data set [1], the EC50 is < 0.009 µg/mL and the “S.I.: Selectivity index (CD50/ED50)” value is recorded as > 4,962. Also, the CC50 in data set [2] amounted to 44.7 µg/mL (≈ 141 µM).
For `Cc1cc(C)cc(Oc2c(C(C)C)c(=O)[nH]c(=O)n2C/C=C/c2ccccc2)c1` [Example 65], in data set [1], the EC50 was < 0.009 µg/mL and the “S.I.: Selectivity index (CD50/ED50)” value is > 893. Moreover, the CC50 in data set [2] was 8.04 µg/mL (≈ 20.6 µM).
`C/C=C/Cn1c(Cc2cc(C)cc(C)c2)c(CC)c(=O)[nH]c1=O` [Example 5, 1-(trans-2-butenyl)-5-ethyl-6-(3,5-dimethylbenzyl)-2,4-pyrimidinedione]: in data set [1], the EC50 was < 0.032 µg/mL and the “S.I.: Selectivity index (CD50/ED50)” value is > 1,518. Further, the CC50 in data set [2] is 48.6 µg/mL (≈ 156 µM).
For `CC#CCn1c(Cc2cc(C)cc(C)c2)c(CC)c(=O)[nH]c1=O` [Example 39, 1-(2-butynyl)-5-ethyl-6-(3,5-dimethylbenzyl)-2,4-pyrimidinedione] the same measures were < 0.049 µg/mL, > 176 and 8.65 µg/mL (≈ 27.9 µM).
Regarding `Cc1cc(C)cc(Oc2c(C(C)C)c(=O)[nH]c(=O)n2CC#Cc2ccccc2)c1` [Example 67, 1-(3-phenyl-2-propynyl)-5-isopropyl-6-(3,5-dimethylphenoxy)-2,4-pyrimidinedione], in data set [1], the EC50 is < 0.009 µg/mL and the “S.I.: Selectivity index (CD50/ED50)” value is on record as > 844. Moreover, in data set [2], the CC50 was 7.6 µg/mL (≈ 19.6 µM).
Consider `CCc1c(Cc2cc(C)cc(C)c2)n(C/C=C/C(=O)OC)c(=O)[nH]c1=O` [Example 37], for which, in data set [1], the EC50 turned out to be 1.64 µg/mL (≈ 4.6 µM) and the “S.I.: Selectivity index (CD50/ED50)” value is 7.6. The CC50 in data set [2] stood at 12.5 µg/mL (≈ 35 µM).
For `CC#CCn1c(C(=O)c2cc(C)cc(C)c2)c(CC)c(=O)[nH]c1=O` [Example 49, 1-(2-butynyl)-5-ethyl-6-(3,5-dimethylbenzoyl)-2,4-pyrimidinedione] the same measures were < 0.032 µg/mL, > 162 and 5.2 µg/mL (≈ 16 µM).
The corresponding values for `Cc1cc(C)cc(C(=O)c2c(C(C)C)c(=O)[nH]c(=O)n2C/C=C/CCl)c1` [Example 9, 1-(4-chloro-trans-2-butenyl)-5-isopropyl-6-(3,5-dimethylbenzoyl)-2,4-pyrimidinedione] are < 0.009 µg/mL, > 708 and 6.38 µg/mL (≈ 17 µM).
Take `CCc1c(C(=O)c2cc(C)cc(C)c2)n(C/C=C\c2ccccc2)c(=O)[nH]c1=O` [Example 69, 1-(cis-cinnamyl)-5-ethyl-6-(3,5-dimethylbenzoyl)-2,4-pyrimidinedione]: in data set [1], the EC50 is < 0.032 µg/mL and the “S.I.: Selectivity index (CD50/ED50)” value was > 270. Also, in data set [2], the CC50 was 8.67 µg/mL (≈ 22.3 µM).
Turning to `CCc1c(C(=O)c2cc(C)cc(C)c2)n(CC#Cc2ccccc2)c(=O)[nH]c1=O` [Example 50, 1-(3-phenyl-2-propynyl)-5-ethyl-6-(3,5-dimethylbenzoyl)-2,4-pyrimidinedione], in data set [1], the EC50 was < 0.009 µg/mL and the “S.I.: Selectivity index (CD50/ED50)” value is given as > 482. In addition, the CC50 in data set [2] was determined as 4.34 µg/mL (≈ 11.2 µM).
For `CC/C=C/Cn1c(C(=O)c2cc(C)cc(C)c2)c(CC)c(=O)[nH]c1=O` [Example 46] the same measures were < 0.009 µg/mL, > 1,015 and 9.14 µg/mL (≈ 26.8 µM).
Turning to `CCc1c(Sc2cc(C)cc(C)c2)n(COCc2ccccc2)c(=O)[nH]c1=O` [Ref. 2, 1benzyloxymethyl-5-ethyl-6-(3,5-dimethylphenylthio)-2,4-pyrimidinedione, reference compound], in data set [1], the EC50 is < 0.009 µg/mL and the “S.I.: Selectivity index (CD50/ED50)” value is reported as > 672. The CC50 in data set [2] turned out to be 6.05 µg/mL (≈ 15.3 µM).
Regarding `Cc1cc(C)cc(C(=O)c2c(C(C)C)c(=O)[nH]c(=O)n2C/C=C/c2ccccc2)c1` [Example 52], in data set [1], the EC50 was < 0.009 µg/mL and the “S.I.: Selectivity index (CD50/ED50)” value is given as > 1,083. Moreover, the CC50 in data set [2] amounted to 9.75 µg/mL (≈ 24.2 µM).
In the case of `CC#CCn1c(Sc2cc(C)cc(C)c2)c(CC)c(=O)[nH]c1=O` [Example 25, 1-(2-butynyl)-5-ethyl-6-(3,5-dimethylphenylthio)-2,4-pyrimidinedione], in data set [1], the EC50 is < 0.69 µg/mL and the “S.I.: Selectivity index (CD50/ED50)” value was > 90. The CC50 in data set [2] came out at 62.5 µg/mL (≈ 190 µM).
Regarding `Cc1cc(C)cc(Sc2c(C(C)C)c(=O)[nH]c(=O)n2CC#Cc2ccccc2)c1` [Example 3, 1-(3-phenyl-2-propynyl)-5-isopropyl-6-(3,5-dimethylphenylthio)-2,4-pyrimidinedione], in data set [1], the EC50 was < 0.009 µg/mL and the “S.I.: Selectivity index (CD50/ED50)” value is > 882. The CC50 in data set [2] was found to be 7.94 µg/mL (≈ 19.6 µM).
In the case of `C=CCn1c(Cc2cc(C)cc(C)c2)c(CC)c(=O)[nH]c1=O` [Example 34, 1-allyl-5-ethyl-6-(3,5-dimethylbenzyl)-2,4-pyrimidinedione], in data set [1], the EC50 was < 0.32 µg/mL and the “S.I.: Selectivity index (CD50/ED50)” value is listed as > 38. Moreover, in data set [2], the CC50 is 12.3 µg/mL (≈ 41.3 µM).
The corresponding values for `C#CCn1c(Sc2ccccc2)c(CC)c(=O)[nH]c1=O` [Example 1, 1-propargyl-5-ethyl-6-phenylthio-2,4-pyrimidinedione] are < 0.32 µg/mL, > 46 and 14.8 µg/mL (≈ 51.9 µM).
For `Cc1cc(C)cc(Sc2c(C(C)C)c(=O)[nH]c(=O)n2C/C=C/c2ccccc2)c1` [Example 29], in data set [1], the EC50 was < 0.023 µg/mL and the “S.I.: Selectivity index (CD50/ED50)” value is listed as > 1,615. In addition, the CC50 in data set [2] stood at 37.1 µg/mL (≈ 91.4 µM).
The corresponding values for `Cc1cc(C)cc(Cc2c(C(C)C)c(=O)[nH]c(=O)n2C/C=C/c2ccccc2)c1` [Example 6, 1-(trans-cinnamyl)-5-isopropyl-6-(3,5-dimethylbenzyl)-2,4-pyrimidinedione] are < 0.009 µg/mL, > 892 and 8.03 µg/mL (≈ 20.7 µM).
The corresponding values for `CCc1c(C(=O)c2cc(C)cc(C)c2)n(C/C=C/CO)c(=O)[nH]c1=O` [Example 84] are < 0.009 µg/mL, > 6,160 and 55.4 µg/mL (≈ 162 µM).
Take `CCc1c(Cc2cc(C)cc(C)c2)n(C/C=C/c2ccccc2)c(=O)[nH]c1=O` [Example 35]: in data set [1], the EC50 was < 0.009 µg/mL and the “S.I.: Selectivity index (CD50/ED50)” value stood at 642. The CC50 in data set [2] is 5.78 µg/mL (≈ 15.4 µM).
